ChEMBL document CHEMBL5352410, “Discovery of novel selenium-containing azole derivatives as antifungal agents by exploiting the hydrophobic cleft of CYP51” (Eur J Med Chem, 2022)
Values after ≈ are worked out from the molar mass of the structure shown.

Experiments:
[1] = Acute toxicity in water diet-fed Kunming mouse administered intragastrically measured for 7 days; settings: in vivo, po, route ig, time 7 day
[2] = Subacute toxicity in water diet-fed Kunming mouse assessed as adverse reactions at 100 to 200 mg/kg, IG measured for 48 hrs; assay type: organism-based; settings: in vivo, po, dose 100-200 mg/kg
[3] = Subacute toxicity in water diet-fed Kunming mouse assessed as effect on kidney at 100 to 200 mg/kg, IG measured after 7 to 14 days by microscopic analysis; assay type: organism-based; settings: in vivo, po, dose lower 100 mg/kg, time lower 7 day, dose upper 200 mg/kg, time upper 14 day
Candida albicans [4] = assay: Fungicidal activity against Candida albicans; assay type: functional
[5] = Metabolic stability in mouse liver microsome assessed as half life; assay type: ADME; settings: liver microsomes
[6] = Subacute toxicity in water diet-fed Kunming mouse assessed as lesions in liver at 100 to 200 mg/kg, IG measured after 8 to 15 days; assay type: organism-based; settings: in vivo, po, dose lower 100 mg/kg, time lower 8 day, dose upper 200 mg/kg, time upper 15 day
[7] = target: T1, Lanosterol 14-alpha demethylase (Candida albicans (strain SC5314 / ATCC MYA-2876) (Yeast), UniProt P10613); assay: Inhibition of CYP51 of Candida albicans ATCC SC5314 assessed as increase in obtusifoliol level at 8 ug/ml incubated for 16 hrs by GC-MS analysis (reference value: 0 %); design: scale not given: the % may be the effect or the level left; settings: at 8 µg/mL
[8] = target: T1, Lanosterol 14-alpha demethylase; assay: Inhibition of CYP51 of Candida albicans ATCC SC5314 assessed as decrease in ergosterol level by measuring residual activity at 1 ug/ml incubated for 16 hrs by GC-MS analysis (reference value: 98.3 %); settings: at 1 µg/mL
[9] = target: T1, Lanosterol 14-alpha demethylase; assay: Inhibition of CYP51 of Candida albicans ATCC SC5314 assessed as increase in lanosterol level at 8 ug/ml incubated for 16 hrs by GC-MS analysis (reference value: 1.7 %); design: scale not given: the % may be the effect or the level left; settings: at 8 µg/mL
Candida albicans [10] = assay: Antibiofilm activity against Candida albicans CPCC400616 assessed as sessile minimum inhibitory concentration measured after 3 hrs by XTT assay; assay type: functional
[11] = Acute toxicity in water diet-fed Kunming mouse assessed as animal death at 500 mg/kg, IG measured for 7 days; assay type: organism-based; settings: in vivo, po, 168 h, time 7 day
[12] = target: T1, Lanosterol 14-alpha demethylase; assay: Inhibition of CYP51 of Candida albicans ATCC SC5314 assessed as increase in obtusifoliol level at 2 ug/ml incubated for 16 hrs by GC-MS analysis (reference value: 0 %); design: scale not given: the % may be the effect or the level left; settings: at 2 µg/mL
Candida albicans [13] = assay: Antifungal activity against FCZ-resistant Candida albicans 904 by CLSI based broth microdilution method; assay type: functional

T1 sequence (P10613 whole entry): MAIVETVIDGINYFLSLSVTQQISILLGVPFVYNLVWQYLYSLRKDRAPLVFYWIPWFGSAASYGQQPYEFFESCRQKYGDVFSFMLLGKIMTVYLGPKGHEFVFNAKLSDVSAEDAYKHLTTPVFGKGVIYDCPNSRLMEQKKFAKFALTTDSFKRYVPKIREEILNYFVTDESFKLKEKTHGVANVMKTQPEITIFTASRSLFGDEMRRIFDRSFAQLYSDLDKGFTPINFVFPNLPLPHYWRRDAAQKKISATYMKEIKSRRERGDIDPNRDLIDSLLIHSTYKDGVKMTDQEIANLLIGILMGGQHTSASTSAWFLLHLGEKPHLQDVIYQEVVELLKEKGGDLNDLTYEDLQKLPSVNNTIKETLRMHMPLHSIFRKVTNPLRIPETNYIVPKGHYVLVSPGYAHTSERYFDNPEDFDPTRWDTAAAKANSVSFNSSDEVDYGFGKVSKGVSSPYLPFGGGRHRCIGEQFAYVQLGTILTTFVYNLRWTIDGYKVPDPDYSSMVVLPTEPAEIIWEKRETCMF

In the case of Clc1ccc(C(Cn2ccnc2)[Se][Se]C(Cn2ccnc2)c2ccc(Cl)cc2Cl)c(Cl)c1 (centres undefined), the LD50 at 168 h [1] is reported as about 2000 mg/kg, the Activity [2] is reported as “Non-Toxic” and the Activity [3] is reported as “Toxic”. For the same molecule, the MFC (Candida albicans [4]) was 16 µg/mL (≈ 25.1 µM), the half-life [5] was 41.1 min and the Activity [6] was “Non-Toxic”. The Activity [7] was 19.8%, the Activity [8] was 24.4% and the Activity [9] was 16.7%. The MIC50 (Candida albicans [10]) was 0.5 µg/mL (≈ 0.784 µM), the MIC80 (Candida albicans [10]) was 4 µg/mL (≈ 6.27 µM) and the Activity [11] was “Non-Toxic”. It also gave an Activity [12] of 12.2% and an MIC (Candida albicans [13]) of 4 µg/mL (≈ 6.27 µM).
